Bridge positions count the residues as written; N and C are the ends. Square brackets hold non-standard residues; d marks the D form. Peptide text beside a SMILES is read from it. NMeF = CN[C@@H](Cc1ccccc1)C(=O)O; dOrn = NCCC[C@@H](N)C(=O)O
Columns and labels:
NPFF1 receptor = target: T1, NPFF1 receptor (Homo sapiens, UniProt Q9GZQ6); experiment: cAMP functional experiment, NPFF1 receptor (forskolin-induced cAMP accumulation); format: cell-based
T1 construct: expressed in transfected cells; host or cells: HEK293
Procedure: (§1) The agonistic activity of the cyclopeptide molecule of the present invention against Mu-opioid receptor, Delta-opioid receptor, Kappa-opioid receptor, NPFF1 receptor and NPFF2 receptor was evaluated by detecting the regulation of the cyclopeptide molecule of the present invention on the intracellular accumulation of cyclic adenosine monophosphate (cAMP) induced by Forskolin in HEK293 cells stably expressing these five receptors. The experimental method was: the cells were seeded in 24 well plates with 120000 cells per well, and were cultured for more than 20 hours. At the beginning of the experiment, the culture medium in the culture dish was suck out, and then 500 μL of preheated serum-free medium containing 1 mM of IBMX was added, the mixture was incubated at 37° C. for 10 minutes. Then each 10 μL of the drug to be tested and 10 μM of forskolin (final concentration) were added to each well. The mixture was incubated at 37° C. for 30 minutes. After incubation, all the liquid was suck out from the culture dish, 500 μL of 0.2 N hydrochloric acid was added to each well, the mixture was incubated at room temperature for 30 minutes to promote cell lysis. After lysis was complete, NaOH was added to neutralize the hydrochloric acid solution used for lysis. Then all the liquid was suck out from the culture dish into centrifuge tubes, the liquid was centrifuged at 12000 rpm for 2 minutes. 50 μL was taken to a clean centrifuge tube, 100 μL of 60 μg/μL PKA was added, and 100 μL of TE cAMP buffer was added to the blank control group (B). Another 50 μL of 0.5 μ Ci[^3H]cAMP was added to each of the above centrifuge tubes, the mixture was quickly mixed and incubated at 4° C. for more than 2 hours. After incubation, another 100 μL of activated carbon suspension was added to each tube, the mixture was vortex agitated evenly, placed in an ice bath for 1 minute, centrifuged at 5000 rpm for 4 minutes. 200 μL of supernatant after centrifugation in each tube was suck out to a 24 well plate, with an additional 700 μL of scintillator liquid added per well, then the 24 well plate was sealed with adhesive film, placed for 3 hours, then placed on the scintillation instrument for measurement.
(§2) The inhibitory effect of cAMP was represented by the percentage (% control) of drug inhibition of intracellular cAMP accumulation induced by Forskolin, wherein % control=(cAMP content when treated with Forskolin−cAMP content when Forskolin co-treated with the test drug)/(cAMP content when treated with Forskolin−cAMP content when treated with solvent). The related % control data was represented by mean±S.E.M. The dose-effect relationship of the drug was statistically analyzed using a nonlinear regression model, and the IC50 values of the multi-target cyclopeptide molecule on inhibition of Forskolin induced intracellular cAMP accumulation were calculated using the statistical software GraphPad Prism version 5.0.

Delta-opioid receptor = target: T2, Delta-opioid receptor (Homo sapiens, UniProt P41143); experiment: cAMP functional experiment, Delta-opioid receptor (forskolin-induced cAMP accumulation); format: cell-based
T2 construct: expressed in transfected cells; host or cells: HEK293
Procedure: as §1, §2

Kappa-opioid receptor = target: T3, Kappa-opioid receptor (Homo sapiens, UniProt P41145); experiment: cAMP functional experiment, Kappa-opioid receptor (forskolin-induced cAMP accumulation); format: cell-based
T3 construct: expressed in transfected cells; host or cells: HEK293
Procedure: as §1, §2

Kunming male mice [1] = experiment: Open field test (locomotor activity); format: in vivo; settings: oral, 1000 μg/kg of compound 1, 100 μg/kg of compound 11; for locomotor distance: within 150 minutes, saline 131.1±33.93 m
Procedure: Open field test was consisted of an uncapped 50×50×40 cm black organic glass box and a set of motion monitoring system. 21±2 g Kunming male mice were selected for the experiment. The room temperature was controlled between 22±1° C., otherwise, high or low temperatures would affect the movement of the mice. Before the experiment began, the box was wipped with alcohol to remove the odor inside and avoid the odor from affecting the locomotor activity of the next mouse. Before the experiment, the basic locomotor activity of the mouse in 30 minutes was recorded, followed by oral (p.o.) injection of physiological saline, 1000 μg/kg of compound 1, and 100 μg/kg of compound 11. The locomotor activity of mice within 150 minutes was recorded. The locomotor activity of mouse was represented by the total distance traveled, which is the total distance±S.E.M. The difference between the compound group and saline control group was statistically analyzed using one-way ANOVA (Bonferroni test). *P<0.05, **P<0.01, and ***P<0.001 indicated significance of difference between saline and compound.

Mu-opioid receptor = target: T4, Mu-opioid receptor (Homo sapiens, UniProt P35372); experiment: cAMP functional experiment, Mu-opioid receptor (forskolin-induced cAMP accumulation); format: cell-based
T4 construct: expressed in transfected cells; host or cells: HEK293
Procedure: as §1, §2

Kunming male mice [2] = experiment: Constipation side effect assay (gastrointestinal motility, activated carbon); format: in vivo; settings: oral; for side effect of constipation: effective dose range of analgesia
Procedure: (§3) 26±2 g Kunming male mice were selected. First, the mice were starved and placed in a box without padding. The mice were not allowed to eat, but could drink water freely. The mice were starved for 16 hours then weighted, and administered orally (p.o.). After 15 minutes of administration, pre-prepared activated carbon suspension (a physiological saline suspension containing 5% activated carbon and 10% arabic gum) was orally infused into the stomach at a volume of 0.1 mL/10 g. After 30 minutes of gavage, the mice were sacrificed through cervical dislocation. The mice were dissected immediately and the entire length of the small intestine was taken from the pylorus of the stomach to the cecum. Then the total length of the small intestine and the length of carbon powder movement were measured.
(§4) The experimental data of gastrointestinal motility was represented by a percentage of gastrointestinal motility, and the specific calculation method was represented by a percentage of the distance the carbon powder moved divided by the total length of the small intestine. The data was represented by the mean±S.E.M. of the percentage of gastrointestinal motility, and the differences between compounds and saline were analyzed using one-way ANOVA (Dunnett test). *P<0.05, **P<0.01, and ***P<0.001indicated significance of the difference between only saline injected and related compounds injected.

[3] = as above; format: in vivo, mice; settings: male, Kunming, mouse, in vivo; oral injection, mice; read-out: ED50 of gastrointestinal inhibition
Procedure: as §3, §4

NPFF2 receptor = target: T5, NPFF2 receptor (Homo sapiens, UniProt Q9Y5X5); experiment: cAMP functional experiment, NPFF2 receptor (forskolin-induced cAMP accumulation); format: cell-based
T5 construct: expressed in transfected cells; host or cells: HEK293
Procedure: as §1, §2

mice = experiment: Naloxone withdrawal experiment (number of jumps); format: in vivo; settings: for number of jumps: escalating doses every 8 hours, naloxone 10 mg/kg i.p., 30 minutes, saline 5; for withdrawal symptoms versus saline: oral, low and high doses
Procedure: The naloxone withdrawal test is a classic experiment for evaluating drug physiological addiction. The experimental method is based on Venetia Zachariou (2003). […] High doses of compound 11 were also administered with doses of 20, 40, 60, 80, 100, 100, and 100 μg/kg, respectively. Two hours after the last administration, mice were intraperitoneally injected with 10 mg/kg of naloxone. Then the mouse was immediately placed in an opaque barrel-shaped structure with an inner diameter of 9 cm and a height of 32 cm, and the number of jumps in mice within 30 minutes was recorded. The experimental results were represented by the number of jumps in mice, which is the number of jumps±S.E.M. The difference between the compound group and saline control group was statistically analyzed using one-way ANOVA (Bonferroni test). *P<0.05, **P<0.01, and ***P<0.001 indicated significance of differences between saline and compound.

T4 sequence (P35372 whole entry): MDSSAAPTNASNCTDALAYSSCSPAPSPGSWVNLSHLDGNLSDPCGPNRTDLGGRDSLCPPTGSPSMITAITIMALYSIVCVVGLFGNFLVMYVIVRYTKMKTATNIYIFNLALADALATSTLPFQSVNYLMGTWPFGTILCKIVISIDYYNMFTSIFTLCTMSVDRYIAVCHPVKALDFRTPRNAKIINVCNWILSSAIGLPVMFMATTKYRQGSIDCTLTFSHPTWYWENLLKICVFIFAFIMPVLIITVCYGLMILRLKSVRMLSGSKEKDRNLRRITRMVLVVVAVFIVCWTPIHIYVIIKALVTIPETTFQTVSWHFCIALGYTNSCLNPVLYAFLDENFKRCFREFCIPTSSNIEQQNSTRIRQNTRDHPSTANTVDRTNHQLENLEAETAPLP
T1 sequence (Q9GZQ6 whole entry): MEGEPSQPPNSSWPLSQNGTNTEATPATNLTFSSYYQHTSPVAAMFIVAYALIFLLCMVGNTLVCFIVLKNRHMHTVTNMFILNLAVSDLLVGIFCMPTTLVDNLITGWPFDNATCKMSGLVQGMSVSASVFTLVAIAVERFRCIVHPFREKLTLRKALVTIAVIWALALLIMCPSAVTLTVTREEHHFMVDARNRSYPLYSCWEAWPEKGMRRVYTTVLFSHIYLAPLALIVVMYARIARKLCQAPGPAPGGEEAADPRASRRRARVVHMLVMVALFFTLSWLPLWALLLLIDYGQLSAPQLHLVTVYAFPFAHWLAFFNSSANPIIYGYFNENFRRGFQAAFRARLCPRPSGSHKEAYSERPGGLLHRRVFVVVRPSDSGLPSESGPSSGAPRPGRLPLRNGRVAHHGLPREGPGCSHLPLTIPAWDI
T3 sequence (P41145 whole entry): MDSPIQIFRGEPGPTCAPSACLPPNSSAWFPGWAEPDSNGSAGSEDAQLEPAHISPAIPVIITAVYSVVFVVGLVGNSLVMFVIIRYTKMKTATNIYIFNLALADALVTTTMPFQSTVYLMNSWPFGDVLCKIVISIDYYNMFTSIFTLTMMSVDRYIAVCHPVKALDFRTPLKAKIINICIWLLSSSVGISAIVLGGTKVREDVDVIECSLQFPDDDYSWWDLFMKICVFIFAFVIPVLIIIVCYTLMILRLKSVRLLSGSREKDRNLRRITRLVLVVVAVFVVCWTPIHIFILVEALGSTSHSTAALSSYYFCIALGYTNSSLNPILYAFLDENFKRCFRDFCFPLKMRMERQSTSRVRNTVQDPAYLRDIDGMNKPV
T2 sequence (P41143 whole entry): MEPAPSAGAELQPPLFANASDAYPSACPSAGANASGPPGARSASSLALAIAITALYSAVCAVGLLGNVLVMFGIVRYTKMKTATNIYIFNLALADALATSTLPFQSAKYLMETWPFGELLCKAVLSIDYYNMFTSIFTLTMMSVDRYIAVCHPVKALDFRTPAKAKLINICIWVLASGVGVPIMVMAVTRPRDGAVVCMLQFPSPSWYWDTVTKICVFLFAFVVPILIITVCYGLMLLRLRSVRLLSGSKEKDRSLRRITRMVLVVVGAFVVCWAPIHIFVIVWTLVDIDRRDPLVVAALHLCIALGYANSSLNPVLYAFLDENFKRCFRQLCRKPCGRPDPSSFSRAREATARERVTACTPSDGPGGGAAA
T5 sequence (Q9Y5X5 whole entry): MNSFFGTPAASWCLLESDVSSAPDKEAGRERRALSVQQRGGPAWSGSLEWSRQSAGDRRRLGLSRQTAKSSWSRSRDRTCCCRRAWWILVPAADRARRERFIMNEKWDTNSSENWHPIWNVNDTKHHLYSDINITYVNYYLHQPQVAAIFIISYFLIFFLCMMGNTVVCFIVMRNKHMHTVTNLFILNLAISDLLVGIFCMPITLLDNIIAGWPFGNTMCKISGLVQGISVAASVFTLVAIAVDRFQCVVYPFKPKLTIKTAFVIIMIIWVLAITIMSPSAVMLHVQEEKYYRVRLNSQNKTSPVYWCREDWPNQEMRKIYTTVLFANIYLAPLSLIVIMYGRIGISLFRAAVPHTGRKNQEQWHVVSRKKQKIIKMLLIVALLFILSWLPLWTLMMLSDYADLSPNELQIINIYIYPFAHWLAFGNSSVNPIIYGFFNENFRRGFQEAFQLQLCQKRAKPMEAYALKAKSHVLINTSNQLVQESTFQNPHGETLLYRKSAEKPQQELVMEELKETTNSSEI

SMILES | IC50 (NPFF1 receptor) | IC50 (Delta-opioid receptor) | IC50 (Kappa-opioid receptor) | locomotor activity versus saline (Kunming male mice [1]) | locomotor distance (Kunming male mice [1]) | IC50 (Mu-opioid receptor) | ED50 of gastrointestinal inhibition relative to analgesic ED50 (Kunming male mice [2]) | side effect of constipation (Kunming male mice [2]) | ED50 at 45 min [3] | IC50 (NPFF2 receptor) | number of jumps (mice; high-dose oral) | number of jumps (mice; low-dose oral) | withdrawal symptoms versus saline (mice)
CN1C(=O)CNC(=O)[C@H](NC(=O)[C@@H](N)Cc2ccc(O)cc2)CCCCNC(=O)C[C@@H](C(=O)N2CCC[C@H]2C(=O)N[C@@H](CCC(N)=O)C(=O)N[C@@H](CCCNC(=N)N)C(=O)N[C@@H](Cc2ccccc2)C(N)=O)NC(=O)[C@@H]1Cc1ccccc1 [Compound 1, Tyr-c[D-Lys-Gly-NMe-Phe-Asp]-Pro-Gln-Arg-Phe-NH2] (H-Y[dK]G[NMeF]DPQRF-NH2; lactam 2-5) | 104 nM | 549 nM | 39 nM | no change in the locomotor activity | 109.4±32.16 m | 93.5 nM | 27044 times | no side effect of constipation within the effective dose range of analgesia | 37.1 mg/kg | 49.8 nM | 1 | 1 | did not show withdrawal symptoms
CN1C(=O)CNC(=O)[C@H](NC(=O)[C@@H](N)Cc2ccc(O)cc2)CCCNC(=O)CC[C@@H](C(=O)N2CCC[C@H]2C(=O)N[C@@H](CCC(N)=O)C(=O)N[C@@H](CCCNC(=N)N)C(=O)N[C@@H](Cc2ccccc2)C(N)=O)NC(=O)[C@@H]1Cc1ccccc1 [Compound 11, Tyr-c^[2,5][D-Orn-Gly-NMe-Phe-Glu]-Pro-Gln-Arg-Phe-NH2] (H-Y[dOrn]G[NMeF]EPQRF-NH2; lactam 2-5) | 42.9 nM | 1560 nM | 109 nM | no change in the locomotor activity | 127.9±23.49 m | 84 nM | 8850 times | no side effect of constipation within the effective dose range of analgesia | 1.24 mg/kg | 572 nM | 4 | 9 | did not show withdrawal symptoms
